Source: patent US7462735B2, “Amino acid diamides in non α position which are useful as adjuvants for administration of biological active agents” (Laboratorios Farmaceuticos Rovi, S.A., priority 2003, dated 2008)

Tested on: not listed separately
Test: Intracolonic absorption of bemiparin in the rat, with or without adjuvant (plasma anti-Xa activity)
Type: in vivo
Settings: 30 mg/kg bemiparin (+ 30 mg/kg adjuvant), 0.5 h post-administration
Excerpt: The properties of the invention products have been investigated in an experimental model described below that consists of measuring the intracolonic absorption in the rat of a low-molecular-weight heparin, bemiparin, with a mean molecular mass of around 3,500 daltons and an anti-Xa activity of around 100 units/mg.
The activity of all compounds of the examples described above was studied in animals according to the following experimental model:
Evaluate the absorption of the test product when administered by intracolonic route to rats, whether or not in the presence of adjuvants. The plasma concentration is measured by assaying the Factor Xa-inhibition capacity. The rat is used because it is one of the species commonly used in this type of test.
One intracolonic administration.
25% (v/v) propylene glycol in bidistilled water. After dissolving the test product along with the adjuvant if applicable, adjust the pH to approximately 7.4 with NaOH.
The animals will be in fasted state for approximately 18 h with free access to water
The animals will be randomized to the various experimental groups, with one remaining animal as a reserve per group:
On the day of the test, the treatments will be administered by intracolonic route, following anaesthesia with ketamine. Administration will be done using a catheter of approximately 8 cm, connected to a 1-ml syringe. The catheter will be introduced in its entirety into the colon through the anus and the test product will be administered slowly into the colon.
Following the administration of the test product, within the times established in the table, a citrated blood sample (3.8% at a ratio of 1:9) will be drawn by intracardiac puncture under anaesthesia with ketamine.
Blood centrifugation: 3000 rpm, 10 minutes, 4° C. Plasma freezing (−20±5° C.) until determining the anti-Factor Xa activity.
A control group that will receive no treatment will be included, simply that one blood sample will be drawn per animal under the same conditions as the treatment group, with considered to be the baseline value of anti-Xa activity.
The anti-Xa activity will be assayed by the chromogenic method (anti-FXa activity assay kit).
The mean, the standard deviation […] and the standard error of the mean of each experimental group will be calculated for each parameter. If considered adequate, the values obtained in the different experimental groups will be compared by a statistical analysis.

anti-Xa activity/ml in plasma	Molecule
0.103	Bemiparin

Same assay, conditions: 30 mg/kg bemiparin (+ 30 mg/kg adjuvant), 2 h post-administration

anti-Xa activity/ml in plasma	Molecule
0.222	Bemiparin

Same assay, conditions: 30 mg/kg bemiparin (+ 30 mg/kg adjuvant), 4 h post-administration

anti-Xa activity/ml in plasma	Molecule
0.345	Bemiparin

Same assay, conditions: adjuvant given with bemiparin, result in words

effect on colonic absorption of bemiparin measured by plasma anti-Xa activity	Molecule
no effect	O=C(O)CCCNC(=O)c1ccc(NC(=O)c2ccccc2O)cc1 [Example 1, 4-[4-(hydroxybenzoylamino)benzoylamino]butanoic acid]
no effect	O=C(O)CCCCCNC(=O)c1ccc(NC(=O)c2ccccc2O)cc1 [Example 2, 6-[4-(2-hydroxybenzoylamino)benzoylamino]hexanoic acid]
strong increase	O=C(O)CCCNC(=O)c1ccccc1NC(=O)c1ccccc1O [Example 4, 4-[2-(2-hydroxybenzoylamino)benzoylamino]butanoic acid]
strong increase	O=C(O)CCCNC(=O)c1ccccc1NC(=O)c1ccc([N+](=O)[O-])cc1O [Example 11, 4-[2-(2-hydroxy-4-nitrobenzoylamino)benzoylamino]butanoic acid]
no effect	O=C(O)CCCNC(=O)c1cccc(NC(=O)c2ccccc2O)c1 [Example 3, 4-[3-(2-hydroxybenzoylamino)benzoylamino]butanoic acid]
strong increase	O=C(O)CCCNC(=O)c1ccccc1NC(=O)c1ccc(Cl)cc1 [Example 17, 4-[2-(4-chlorobenzoylamino)benzoylamino]butanoic acid]

Tested on: Factor Xa
Test: Anti-Xa activity of the heparin material (units/mg)
Type: biochemical
Settings: specific activity of the heparin material

Molecule	anti-Xa activity
Bemiparin	around 100 units/mg

Tested on: not given
Test: not given
Settings: not given

melting point [°C]	Molecule
211 to 213	O=C(O)CCCNC(=O)c1ccc(NC(=O)c2ccccc2O)cc1 [Example 1, 4-[4-(hydroxybenzoylamino)benzoylamino]butanoic acid]
201 to 203	O=C(O)CCCCCNC(=O)c1ccc(NC(=O)c2ccccc2O)cc1 [Example 2, 6-[4-(2-hydroxybenzoylamino)benzoylamino]hexanoic acid]
191 to 193	COc1ccc(O)c(C(=O)Nc2ccccc2C(=O)NCCCC(=O)O)c1 [Example 14, 4-[2-(2-hydroxy-5-methoxybenzoylamino)benzoylamino]butanoic acid]
173 to 174	O=C(O)CCCNC(=O)c1ccccc1NC(=O)c1ccccc1O [Example 4, 4-[2-(2-hydroxybenzoylamino)benzoylamino]butanoic acid]
205 to 206	O=C(O)CCCNC(=O)c1ccccc1NC(=O)c1ccc(Cl)cc1O [Example 18, 4-[2-(4-chloro-2-hydroxybenzoylamino)benzoylamino]butanoic acid]
206 to 208	O=C(O)CCCNC(=O)c1ccccc1NC(=O)c1ccc([N+](=O)[O-])cc1 [Example 15, 4-[2-(4-nitrobenzoylamino)benzoylamino]butanoic acid]
110 to 112	O=C(O)CCCNC(=O)c1ccccc1NC(=O)c1ccccc1Cl [Example 20, 4-[2-(2-chlorobenzoylamino)benzoylamino]butanoic acid]
209 to 211	O=C(O)CCCNC(=O)c1ccccc1NC(=O)c1ccc([N+](=O)[O-])cc1O [Example 11, 4-[2-(2-hydroxy-4-nitrobenzoylamino)benzoylamino]butanoic acid]
117 to 118	O=C(O)CCCNC(=O)c1ccccc1NC(=O)c1ccccc1Br [Example 21, 4-[2-(2-bromobenzoylamino)benzoylamino]butanoic acid]
124 to 125	O=C(O)CCCCCCCNC(=O)c1ccccc1NC(=O)c1ccccc1O [Example 6, 8-[2-(2-hydroxybenzoylamino)benzoylamino]octanoic acid]
168 to 170	O=C(O)CCCCNC(=O)c1ccccc1NC(=O)c1ccccc1O [Example 5, 5-[2-(2-hydroxybenzoylamino)benzoylamino]pentanoic acid]
172 to 174	O=C(O)CCCNC(=O)c1cccc(NC(=O)c2ccccc2O)c1 [Example 3, 4-[3-(2-hydroxybenzoylamino)benzoylamino]butanoic acid]
165 to 167	O=C(O)CCCCCNC(=O)c1ccccc1NC(=O)c1ccccc1O [Example 7, 6-[2-(2-hydroxybenzoylamino)benzoylamino]hexanoic acid]
201 to 203	COc1ccc(C(=O)Nc2ccccc2C(=O)NCCCC(=O)O)c(O)c1 [Example 13, 4-[2-(2-hydroxy-4-methoxybenzoylamino)benzoylamino]butanoic acid]
222 to 223	O=C(O)CCCNC(=O)c1ccccc1NC(=O)c1cc(Cl)ccc1O [Example 19, 4-[2-(5-chloro-2-hydroxybenzoylamino)benzoylamino]butanoic acid]
172 to 174	COc1ccc(C(=O)Nc2ccccc2C(=O)NCCCC(=O)O)cc1 [Example 16, 4-[2-(4-methoxybenzoilamino)benzoilamino]butanoic acid]
200 to 202	O=C(O)CCNC(=O)c1ccccc1NC(=O)c1ccccc1O [Example 9, 3-[2-(2-hydroxybenzoylamino)benzoylamino]propanoic acid]
165 to 166	O=C(O)CCCNC(=O)c1ccccc1NC(=O)c1cccc(Cl)c1 [Example 22, 4-[2-(3-chlorobenzoylamino)benzoylamino]butanoic acid]
239 to 241	O=C(O)CCCNC(=O)c1ccccc1NC(=O)c1cc([N+](=O)[O-])ccc1O [Example 12, 4-[2-(2-hydroxy-5-nitrobenzoylamino)benzoylamino]butanoic acid]
142 to 144	O=C(O)CCCNC(=O)c1ccccc1NC(=O)c1ccccc1[N+](=O)[O-] [Example 8, 4-[2-(2-nitrobenzoylamino)benzoylamino]butanoic acid]
182 to 184	O=C(O)CCCNC(=O)c1ccccc1NC(=O)c1ccc(Cl)cc1 [Example 17, 4-[2-(4-chlorobenzoylamino)benzoylamino]butanoic acid]
